{"source": "patent US11369597B2", "about": "“Methods for treating pancreatic cancer using combination therapies” (Ipsen Biopharm Ltd., priority 2012, dated 2022)", "origin": "cited, not measured here", "key": {"[1]": {"conditions": "metabolite formed by carboxylesterases"}, "[2]": {"test_system": "advanced pancreatic cancer", "conditions": "first-line"}, "[3]": {"test_system": "advanced and metastatic pancreatic adenocarcinoma"}, "[4]": {"conditions": "for incidence of grade 4 neutropenia: 350 mg/m^2 once every-3-weeks"}}, "note": "Where two headings read alike, the source gives them in different places.", "data": [{"molecule": "CCc1c2c(nc3ccc(O)cc13)-c1cc3c(c(=O)n1C2)COC(=O)[C@]3(O)CC", "note": "[SN-38]", "values": [{"measurement": "SN-38 more active than irinotecan", "setting": "[1]", "value": "100-1000 fold"}]}, {"molecule": "Nc1ccn([C@@H]2O[C@H](CO)[C@@H](O)C2(F)F)c(=O)n1", "note": "[gemcitabine]", "values": [{"measurement": "1-year survival rate", "setting": "[2]", "value": 17, "unit": "%"}, {"measurement": "median survival", "setting": "[2]", "value": 5.9, "unit": "months"}, {"measurement": "median overall prolongation of survival", "setting": "[3]; second line after 5-fluorouracil", "value": 3.9, "unit": "months"}, {"measurement": "1-year survival rate", "setting": "[3]; single-agent, first-line", "value": "about 20%"}]}, {"molecule": "CCc1c2c(nc3ccc(OC(=O)N4CCC(N5CCCCC5)CC4)cc13)-c1cc3c(c(=O)n1C2)COC(=O)[C@]3(O)CC", "note": "[irinotecan, 7-ethyl-10-[4-(1-piperidino)-1-piperidino] carbonyloxycampothecin]", "values": [{"measurement": "incidence of grade 4 neutropenia", "setting": "[4]; patients heterozygous (UGT1A1 6/7 genotype)", "value": 12.5, "unit": "%"}, {"measurement": "incidence of grade 4 neutropenia", "setting": "[4]; patients homozygous for the UGT1A1*28 allele", "value": 50, "unit": "%"}, {"measurement": "grade 4 neutropenia", "setting": "[4]; patients homozygous for the wild-type allele (UGT1A1 6/6 genotype)", "value": "no grade 4 neutropenia was observed"}]}]}
